Measured values reported in the NIST ThermoML archive (doi:10.1021/je060033f).
± gives the expanded uncertainty stated by the source.

Assay: activity coefficient (dimensionless); of the first substance listed, at infinite dilution; xn = mol fraction of the nth substance listed
Settings: 323.15 K; 101 kPa; Liquid; Chromatography; x1 = 0

SMILES	activity coefficient
CCCCCC [hexane] + C=CC[n+]1ccn(CCCCCCCC)c1.[Br-]	8.9 ± 0.61
CCCCCC [hexane] + C=CC[n+]1ccn(CCCCCCCCCC)c1.[Br-]	8.39 ± 0.57
CCCCCC [hexane] + C=CC[n+]1ccn(CCCCCCCCCCCC)c1.[Br-]	4.41 ± 0.3
CCCCCC [hexane] + C=CCn1cc[n+](C)c1.[Br-]	25.1 ± 1.7
CCCCCC [hexane] + CCCCCCCCCCCC[n+]1ccn(CCCB(O)O)c1.[Br-]	4.65 ± 0.32
CCCCCC [hexane] + CCCCCCCCCC[n+]1ccn(CCCB(O)O)c1.[Br-]	5.45 ± 0.37
CCCCCC [hexane] + CCCCCCCC[n+]1ccn(CCCB(O)O)c1.[Br-]	18.2 ± 1.2
CO [methanol] + C=CC[n+]1ccn(CCCCCCCC)c1.[Br-]	0.17 ± 0.03
CO [methanol] + C=CC[n+]1ccn(CCCCCCCCCC)c1.[Br-]	0.17 ± 0.03
CO [methanol] + C=CC[n+]1ccn(CCCCCCCCCCCC)c1.[Br-]	0.15 ± 0.03
CO [methanol] + C=CCn1cc[n+](C)c1.[Br-]	0.18 ± 0.03
CO [methanol] + CCCCCCCCCCCC[n+]1ccn(CCCB(O)O)c1.[Br-]	0.04
CO [methanol] + CCCCCCCCCC[n+]1ccn(CCCB(O)O)c1.[Br-]	0.05
CO [methanol] + CCCCCCCC[n+]1ccn(CCCB(O)O)c1.[Br-]	0.04
CO [methanol] + C[n+]1ccn(CCCB(O)O)c1.[Br-]	0.05
CCCCCCCCC [nonane] + C=CC[n+]1ccn(CCCCCCCC)c1.[Br-]	17.4 ± 1.2
CCCCCCCCC [nonane] + C=CC[n+]1ccn(CCCCCCCCCC)c1.[Br-]	16.9 ± 1.2
CCCCCCCCC [nonane] + C=CC[n+]1ccn(CCCCCCCCCCCC)c1.[Br-]	6.93 ± 0.47

SMILES	activity coefficient
CCCCCCCCC [nonane] + C=CCn1cc[n+](C)c1.[Br-]	65.6 ± 4.5
CCCCCCCCC [nonane] + CCCCCCCCCCCC[n+]1ccn(CCCB(O)O)c1.[Br-]	6.99 ± 0.48
CCCCCCCCC [nonane] + CCCCCCCCCC[n+]1ccn(CCCB(O)O)c1.[Br-]	9.92 ± 0.68
CCCCCCCCC [nonane] + CCCCCCCC[n+]1ccn(CCCB(O)O)c1.[Br-]	26.2 ± 1.8
CCCCCCCCC [nonane] + C[n+]1ccn(CCCB(O)O)c1.[Br-]	83.2 ± 5.7
CCCCCCCC [octane] + C=CC[n+]1ccn(CCCCCCCC)c1.[Br-]	14.9 ± 1
CCCCCCCC [octane] + C=CC[n+]1ccn(CCCCCCCCCC)c1.[Br-]	14.3 ± 0.98
ClC(Cl)(Cl)Cl [tetrachloromethane] + C=CC[n+]1ccn(CCCCCCCC)c1.[Br-]	0.82 ± 0.05
ClC(Cl)(Cl)Cl [tetrachloromethane] + C=CC[n+]1ccn(CCCCCCCCCC)c1.[Br-]	0.8 ± 0.05
ClC(Cl)(Cl)Cl [tetrachloromethane] + C=CC[n+]1ccn(CCCCCCCCCCCC)c1.[Br-]	0.7 ± 0.05
ClC(Cl)(Cl)Cl [tetrachloromethane] + C=CCn1cc[n+](C)c1.[Br-]	1.54 ± 0.1
ClC(Cl)(Cl)Cl [tetrachloromethane] + CCCCCCCCCCCC[n+]1ccn(CCCB(O)O)c1.[Br-]	0.9 ± 0.06
ClC(Cl)(Cl)Cl [tetrachloromethane] + CCCCCCCCCC[n+]1ccn(CCCB(O)O)c1.[Br-]	0.79 ± 0.05
ClC(Cl)(Cl)Cl [tetrachloromethane] + CCCCCCCC[n+]1ccn(CCCB(O)O)c1.[Br-]	1.23 ± 0.08
ClC(Cl)(Cl)Cl [tetrachloromethane] + C[n+]1ccn(CCCB(O)O)c1.[Br-]	21.2 ± 1.4
Cc1ccccc1 [toluene] + C=CC[n+]1ccn(CCCCCCCC)c1.[Br-]	1.92 ± 0.13
Cc1ccccc1 [toluene] + C=CC[n+]1ccn(CCCCCCCCCC)c1.[Br-]	1.85 ± 0.12

Other lines, results leading:

activity coefficient	SMILES
6.37 ± 0.43	CCCCCCCC [octane] + C=CC[n+]1ccn(CCCCCCCCCCCC)c1.[Br-]
63 ± 4.3	CCCCCCCC [octane] + C=CCn1cc[n+](C)c1.[Br-]
6.34 ± 0.43	CCCCCCCC [octane] + CCCCCCCCCCCC[n+]1ccn(CCCB(O)O)c1.[Br-]
8.81 ± 0.6	CCCCCCCC [octane] + CCCCCCCCCC[n+]1ccn(CCCB(O)O)c1.[Br-]
23.6 ± 1.6	CCCCCCCC [octane] + CCCCCCCC[n+]1ccn(CCCB(O)O)c1.[Br-]
81 ± 5.5	CCCCCCCC [octane] + C[n+]1ccn(CCCB(O)O)c1.[Br-]
1.93 ± 0.13	CCCC(C)=O [pentan-2-one] + C=CC[n+]1ccn(CCCCCCCC)c1.[Br-]
1.78 ± 0.12	CCCC(C)=O [pentan-2-one] + C=CC[n+]1ccn(CCCCCCCCCC)c1.[Br-]
1.62 ± 0.11	CCCC(C)=O [pentan-2-one] + C=CC[n+]1ccn(CCCCCCCCCCCC)c1.[Br-]
4.32 ± 0.29	CCCC(C)=O [pentan-2-one] + C=CCn1cc[n+](C)c1.[Br-]
1.63 ± 0.11	CCCC(C)=O [pentan-2-one] + CCCCCCCCCCCC[n+]1ccn(CCCB(O)O)c1.[Br-]
1.67 ± 0.11	CCCC(C)=O [pentan-2-one] + CCCCCCCCCC[n+]1ccn(CCCB(O)O)c1.[Br-]
2.32 ± 0.16	CCCC(C)=O [pentan-2-one] + CCCCCCCC[n+]1ccn(CCCB(O)O)c1.[Br-]
24.2 ± 1.7	CCCC(C)=O [pentan-2-one] + C[n+]1ccn(CCCB(O)O)c1.[Br-]
0.28 ± 0.03	CCCO [propan-1-ol] + C=CC[n+]1ccn(CCCCCCCC)c1.[Br-]
0.28 ± 0.03	CCCO [propan-1-ol] + C=CC[n+]1ccn(CCCCCCCCCC)c1.[Br-]
0.23 ± 0.03	CCCO [propan-1-ol] + C=CC[n+]1ccn(CCCCCCCCCCCC)c1.[Br-]
0.54 ± 0.04	CCCO [propan-1-ol] + C=CCn1cc[n+](C)c1.[Br-]
0.36 ± 0.03	CC(C)O [propan-2-ol] + C=CC[n+]1ccn(CCCCCCCC)c1.[Br-]
0.35 ± 0.03	CC(C)O [propan-2-ol] + C=CC[n+]1ccn(CCCCCCCCCC)c1.[Br-]
0.29 ± 0.03	CC(C)O [propan-2-ol] + C=CC[n+]1ccn(CCCCCCCCCCCC)c1.[Br-]
0.69 ± 0.05	CC(C)O [propan-2-ol] + C=CCn1cc[n+](C)c1.[Br-]
0.93 ± 0.06	c1ccsc1 [thiophene] + C=CC[n+]1ccn(CCCCCCCC)c1.[Br-]
0.89 ± 0.06	c1ccsc1 [thiophene] + C=CC[n+]1ccn(CCCCCCCCCC)c1.[Br-]
0.77 ± 0.05	c1ccsc1 [thiophene] + C=CC[n+]1ccn(CCCCCCCCCCCC)c1.[Br-]
1.48 ± 0.1	c1ccsc1 [thiophene] + C=CCn1cc[n+](C)c1.[Br-]
0.9 ± 0.06	c1ccsc1 [thiophene] + CCCCCCCCCCCC[n+]1ccn(CCCB(O)O)c1.[Br-]
0.79 ± 0.05	c1ccsc1 [thiophene] + CCCCCCCCCC[n+]1ccn(CCCB(O)O)c1.[Br-]
1.2 ± 0.08	c1ccsc1 [thiophene] + CCCCCCCC[n+]1ccn(CCCB(O)O)c1.[Br-]
19.4 ± 1.3	c1ccsc1 [thiophene] + C[n+]1ccn(CCCB(O)O)c1.[Br-]
